Assay results as given in publication PMC9922277, “Repositioning Lomitapide to block ZDHHC5-dependant palmitoylation on SSTR5 leads to anti-proliferation effect in preclinical pancreatic cancer models” (Cell Death Discovery, 2023).
Ends that are not written are not given here.

What was measured:
ZDHHC5 = biological target: T1, ZDHHC5 (Homo sapiens, UniProt Q9C0B5); assay: microscale thermophoresis (MST) with labeled ZDHHC5 fragment; format: binding
T1 construct: protein fragment 60-148aa expressed using Yeast

[1] = biological target: T2, ZDHHC5 protein fragment (60-148aa), ZDHHC5's substrate binding domain (UniProt Q9C0B5 60-148, RED-NHS 2nd Generation dye label where it was the labeled partner (assay without Lomitapide); unlabeled in the assay with Lomitapide); assay: MST; 20 nM labeled ZDHHC5 mixed with unlabeled SSTR5 in 16 serial concentrations (maximum 200 nM), RT, 1.05*PBS; Monolith NT.115, LED 20%, medium MST power; conditions: both partners purified
T2 construct: also called ZDHHC5 substrate domain; source: expressed using Yeast; labeled and purified with the labeling kit

[2] = biological target: T2, ZDHHC5 protein fragment (60-148aa), …; assay: MST; in the presence of 25 uM Lomitapide: 20 nM labeled SSTR5 and 25 uM Lomitapide mixed with unlabeled ZDHHC5 in 16 serial concentrations (maximum 200 nM), RT, 1.05*PBS; conditions: both partners purified

T2 sequence (Q9C0B5 60-148): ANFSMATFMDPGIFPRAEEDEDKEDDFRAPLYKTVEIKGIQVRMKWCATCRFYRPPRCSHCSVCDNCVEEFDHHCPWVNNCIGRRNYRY
T1 sequence (Q9C0B5 60-148): as above

Kd (ZDHHC5) | Kd [1] | Kd [2] | Molecule
509 nM |  |  | O=C(NC1CCN(CCCCC2(C(=O)NCC(F)(F)F)c3ccccc3-c3ccccc32)CC1)c1ccccc1-c1ccc(C(F)(F)F)cc1 [Lomitapide]
88 nM |  |  | CCCCCCCCCCCCCCCC(=O)O [palmitic acid]
 | 2.06 nM | 22.5 nM | SSTR5 protein fragment (cytoplasmic tail 307-364aa) (domain or fragment, UniProt P35346 307-364, looked up, also: RED-NHS dye label in the labeled-partner assay, site not given here, also called SSTR5 (307-362 aa); SSTR5 cytoplasmic tail) LSDNFRQSFQKVLCLRKGSGAKDADATEPRPDRIRQQQEATPPAHRAAANGLMQTSKL
